{
  "source": "paper PMC11434480",
  "about": "“Discovery and Optimization of Ergosterol Peroxide Derivatives as Novel Glutaminase 1 Inhibitors for the Treatment of Triple-Negative Breast Cancer” (Molecules, 2024)",
  "key": {"MCF-7": {"test_system": "MCF-7", "experiment": "MTT antiproliferative assay, MCF-7", "format": "cell-based, human", "conditions": "Homo sapiens, MCF7, 48 h, mean of three experiments ± SD", "description": "(§2) The in vitro antiproliferative activity of the novel EP derivatives (1a–h, 2a–h, 3a–h, and 4a–h) was evaluated on four different human cancer cell lines (A549, HepG2, MCF-7, and MDA-MB-231) using an MTT assay.\n(§3) Cells containing 10% fetal bovine serum (FBS; WISENT, Nanjing, China) were cultured in an L-15 culture medium (L-15, BOSTER, Wuhan, China) in an incubator at 37 °C. The cells were then inoculated into 96-well plates at a density of 5 × 10^3/well, cultured in 100 μL L-15 medium for 24 h, and incubated with the compound to be tested for 48 h. Next, 20 μL of MTT (5 mg/mL) solution was added and incubated at 37 °C for 4 h away from light. A resorption culture medium was then supplemented with 150 μL DMSO per well. The absorbance was measured at 570 nm using an enzymometer (SAFIRE2, Tecan, Swiss Confederation, Männedorf, Switzerland). The cytotoxic activity was presented in terms of half the inhibition rate."}, "MDA-MB-231": {"test_system": "MDA-MB-231", "experiment": "MTT antiproliferative assay, MDA-MB-231", "format": "cell-based, human", "description": "as §2, §3"}, "A549": {"test_system": "A549", "experiment": "MTT antiproliferative assay, A549", "format": "cell-based, human", "conditions": "Homo sapiens, A549, 48 h, mean of three experiments ± SD", "description": "as §2, §3"}, "HepG2": {"test_system": "HepG2", "experiment": "MTT antiproliferative assay, HepG2", "format": "cell-based, human", "conditions": "Homo sapiens, HepG2, 48 h, mean of three experiments ± SD", "description": "as §2, §3"}, "human GLS1": {"molecular_target": "T1, human GLS1 (Homo sapiens, UniProt O94925)", "T1 sequence (O94925 55-669)": "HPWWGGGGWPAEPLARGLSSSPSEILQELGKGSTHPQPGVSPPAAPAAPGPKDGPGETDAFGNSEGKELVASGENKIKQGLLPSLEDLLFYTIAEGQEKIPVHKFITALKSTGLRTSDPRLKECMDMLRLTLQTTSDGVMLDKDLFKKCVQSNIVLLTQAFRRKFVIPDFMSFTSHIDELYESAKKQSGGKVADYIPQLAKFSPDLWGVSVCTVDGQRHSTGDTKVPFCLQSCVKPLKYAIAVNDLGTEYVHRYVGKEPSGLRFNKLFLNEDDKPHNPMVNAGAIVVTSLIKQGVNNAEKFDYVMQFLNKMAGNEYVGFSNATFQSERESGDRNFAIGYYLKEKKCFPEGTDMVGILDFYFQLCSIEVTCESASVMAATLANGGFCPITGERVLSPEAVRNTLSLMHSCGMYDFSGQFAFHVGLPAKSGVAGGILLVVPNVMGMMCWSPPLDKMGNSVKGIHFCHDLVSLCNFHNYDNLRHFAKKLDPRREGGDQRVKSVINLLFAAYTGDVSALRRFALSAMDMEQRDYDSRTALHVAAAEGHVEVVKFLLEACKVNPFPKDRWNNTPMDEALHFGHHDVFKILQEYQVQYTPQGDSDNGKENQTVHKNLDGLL", "experiment": "GLS1 inhibitor screening kit in MDA-MB-231 cells", "format": "cell-based", "conditions": "48 h, read-out: GLS1 inhibition IC50", "method": "The GLS1 inhibitory activity of compound 3g in MDA-MB-231 cells was evaluated using a GLS1 inhibitor screening kit.\nMDA-MB-231 cells were cultured for 24 h and then incubated with different concentrations of 3g or 0.1%DMSO for 48 h and washed with PBS 1–2 times. The cells were then collected, subjected to ultrasound in an ice bath for 5 min, and centrifuged at 4 °C and 1200 g for 15 min. Next, the GLS1 activity in human GLS1 was evaluated according to the manufacturer’s guidelines using a GLS1 screening kit (Sangon Biotech #D799306, Shanghai, China) in a 96-well plate (Corning # 351172, New York, NY, USA)."}, "MDA-MB-231 cells [1]": {"test_system": "MDA-MB-231 cells", "experiment": "ROS assay (DCFH-DA, confocal microscopy and flow cytometry)", "format": "cell-based, human", "conditions": "MDA-MB-231, different concentrations, 48 h", "method": "Excessive ROS in tumor cells can induce tumor cell apoptosis. Nevertheless, the ROS levels in tumor cells were often influenced by glutamine. Thus, the regulation of glutamine metabolism was crucial for ROS homeostasis. In this study, laser confocal microscopy and flow cytometry were employed to detect the ROS level.\nMDA-MB-231 cells were inoculated in 24-well plates at a density of 8 × 10^3 cells per well and incubated with different concentrations of 3 g or 0.1% DMSO for 48 h. The cells were washed with PBS 1–2 times. The cells were then incubated at 37 °C for 20 min with reference to a DCFH-DA fluorescent probe kit (Keygen Company, Nanjing, China) and washed with a serum-free medium 1–2 times. The ROS levels were observed via laser confocal microscopy (LSM710, Zeiss, Oberkochen, Germany) or detected with flow cytometry (FACS Calibur, Becton, Dickinson and Company, Franklin Lakes, NJ, USA)."}, "MDA-MB-231 cells [2]": {"test_system": "MDA-MB-231 cells", "experiment": "Western blot of apoptosis proteins", "format": "cell-based, human", "conditions": "MDA-MB-231, 48 h", "method": "(§1) To determine whether the decrease in MDA-MB-231 cell viability observed after 3g treatment was related to apoptosis, we treated MDA-MB-231 cells with 3g and assessed the changes in apoptosis.\nMDA-MB-231 cells were subjected to treatment with different concentrations of 3g or 0.1% DMSO for 48 h. Subsequently, the cells were gathered, and the total protein was extracted by adding protease inhibitors and phosphatase inhibitors along with 1 × RIPA lysis buffer (Beyotime Company). The quantification of the extracted protein was carried out using a BCA kit (ComWin Biotech Company, Beijin, China). The extracted total protein, with an amount of 20 μg/well, underwent SDS–polyacrylamide gel electrophoresis (SDS-PAGE, provided by BioRad Laboratories located in Hercules, CA, USA). The protein was then wet-transferred to a PVDF membrane. Next, GLS1, Bcl-2, Bax, Cyt C, caspase-9, cleaved caspase-9, caspase-3, cleaved caspase-3, and GAPDH were incubated at 4 °C overnight. Subsequently, the secondary isotype-specific antibody, which was labeled with horseradish peroxidase, was obtained from Cell Signaling Technology. The color was developed with an ECL luminescent solution (Meilun Biotech Company, Dalian, China) and detected using a gel imager (ChemiDoc MP, BioRad Laboratories, CA, USA)."}, "MDA-MB-231 cells [3]": {"test_system": "MDA-MB-231 cells", "experiment": "Colony formation assay", "format": "cell-based", "conditions": "Homo sapiens, MDA-MB-231 colony formation, vs blank control, read-out: proliferation inhibition rate", "method": "To explore the inhibitory effect of 3g on the proliferation of MDA-MB-231 cells, we treated MDA-MB-231 cells with different concentrations of 3g and EP.\nMDA-MB-231 cells (1000 cells/well) were seeded into a 6-well plate with 2 mL L–15 culture medium and incubated at 37 °C for 24 h. Following this process, different concentrations of 3g or EP were added and incubated for an additional 24 h before the culture medium was replaced. The cells then continued to be cultured for two weeks, with the culture medium being changed twice a week. After two weeks, the cell colonies were washed with PBS, fixed using a 4% paraformaldehyde solution (Beyotime, Shanghai, China), and subsequently stained with a 0.05% crystal violet solution (Beyotime, Shanghai, China)."}, "4T1 cells": {"test_system": "4T1 cells", "experiment": "4T1 transplanted tumor model in BALB/c mice"}, "MDA-MB-231 cells [4]": {"test_system": "MDA-MB-231 cells", "experiment": "Annexin V-FITC/PI apoptosis assay (flow cytometry)", "format": "cell-based, human", "conditions": "Annexin V-FITC/PI double staining, 48 h", "method": "as §1\nAn Annexin V FITC/PI apoptosis detection kit (Keygen Company, Nanjing, China) was employed to identify apoptotic cells. Briefly, MDA-MB-231 cells were subjected to treatment with varying concentrations of 3g or 0.1% DMSO and incubated at 37 °C for 48 h. Subsequently, the cells were harvested and resuspended in PBS at a concentration of 1 × 10^5 cells/mL. Following centrifugation at 2000 rpm/min for 5 min, 500 μL binding buffer, 5 μL Annexin V FITC, and 5 μL propidium iodide (PI) were added. The mixture was then incubated at room temperature in the absence of light for 20 min. Finally, the samples were analyzed using FACSCalibur flow cytometry (Becton, Dickinson and Company, Franklin Lakes, USA)."}, "MDA-MB-231 cells [5]": {"test_system": "MDA-MB-231 cells", "format": "cell-based, human", "conditions": "2, 4 and 8 μM, 48 h"}, "[6]": {"conditions": "25 and 50 mg/kg/2 days, intraperitoneal, 14 days"}},
  "data": [
    {"smiles": "COc1ccc(NC(=O)CCCC(=O)OC2CCC3(C)C4CCC5(C)C(C(C)C=CC(C)C(C)C)CCC5C45C=CC3(C2)OO5)cc1", "note": "(stereo not drawn) [Compound 3g]", "values": [
      {"measurement": "IC50", "setting": "MCF-7", "result": "4.57 ± 0.62", "unit": "µM"},
      {"measurement": "IC50", "setting": "MDA-MB-231; Homo sapiens, MDA-MB-231, MTT, 48 h, mean of three experiments ± SD", "result": "3.2 ± 0.29", "unit": "µM"},
      {"measurement": "fold higher activity than EP against MDA-MB-231", "setting": "MDA-MB-231; ratio of IC50 values, EP vs compound", "result": 5.4, "unit": "fold"},
      {"measurement": "IC50", "setting": "A549", "result": "13.5 ± 1.14", "unit": "µM"},
      {"measurement": "IC50", "setting": "HepG2", "result": "15.5 ± 0.63", "unit": "µM"},
      {"measurement": "IC50", "setting": "human GLS1", "result": 3.77, "unit": "µM"},
      {"measurement": "intracellular ROS level", "setting": "MDA-MB-231 cells [1]", "result": "significantly elevated the intracellular ROS level"},
      {"measurement": "expression of Bax, Cyt C, cleaved caspase-9 and cleaved caspase-3", "setting": "MDA-MB-231 cells [2]", "result": "significantly upregulated"},
      {"measurement": "expression of Bcl-2", "setting": "MDA-MB-231 cells [2]", "result": "decreased the expression"},
      {"measurement": "inhibition at 2 µM", "setting": "MDA-MB-231 cells [3]", "result": 56.3, "unit": "%"},
      {"measurement": "effect on body weights of the mice", "setting": "4T1 cells; [6]", "result": "no significant effect"},
      {"measurement": "tumor volume and tumor weight", "setting": "4T1 cells; [6]", "result": "significantly reduced"},
      {"measurement": "tumor growth", "setting": "4T1 cells; 25 and 50 mg/kg/2 days, intraperitoneal, 14 days, vs blank control", "result": "effectively inhibited"},
      {"measurement": "therapeutic effect in mouse model of breast cancer", "setting": "4T1 cells; dose of 50 mg/kg", "result": "remarkable therapeutic effects"},
      {"measurement": "toxicity in mouse model of breast cancer", "setting": "4T1 cells; dose of 50 mg/kg", "result": "no apparent toxicity"},
      {"measurement": "histopathological changes in heart, liver, spleen, lungs and kidneys (HE staining)", "setting": "4T1 cells; tumor-bearing mice, 14 days treatment", "result": "no histopathological changes"},
      {"measurement": "apoptosis of MDA-MB-231 cells", "setting": "MDA-MB-231 cells [4]", "result": "increased significantly"},
      {"measurement": "glutamate production in MDA-MB-231 cells", "setting": "MDA-MB-231 cells [5]", "result": "reduced the production of glutamate in MDA-MB-231 cells in a dose-dependent manner"}
    ]}
  ]
}
